Test results: patent US20230265151A1, “GIP/GLP1 CO-AGONIST COMPOUNDS” (priority 2020, published 2023)
Like-named read-outs stand apart in the source and are kept apart here.

Key:
Type in all cases: cell-based
hGIPR = target: T1, hGIPR (Homo sapiens, UniProt P48546); assay: Functional cAMP formation (HTRF) in HEK-293 clonal cells expressing hGIPR, 0.1% bovine casein, without or with 1.0% human serum albumin; conditions: for Emax: percent of maximal response to GIP(1-42)NH2; for EC50: hGIPR EC50, nM (SEM, n), 37° C., geometric mean
T1 construct: expressed in transfected cells
T1 sequence (P48546 22-466): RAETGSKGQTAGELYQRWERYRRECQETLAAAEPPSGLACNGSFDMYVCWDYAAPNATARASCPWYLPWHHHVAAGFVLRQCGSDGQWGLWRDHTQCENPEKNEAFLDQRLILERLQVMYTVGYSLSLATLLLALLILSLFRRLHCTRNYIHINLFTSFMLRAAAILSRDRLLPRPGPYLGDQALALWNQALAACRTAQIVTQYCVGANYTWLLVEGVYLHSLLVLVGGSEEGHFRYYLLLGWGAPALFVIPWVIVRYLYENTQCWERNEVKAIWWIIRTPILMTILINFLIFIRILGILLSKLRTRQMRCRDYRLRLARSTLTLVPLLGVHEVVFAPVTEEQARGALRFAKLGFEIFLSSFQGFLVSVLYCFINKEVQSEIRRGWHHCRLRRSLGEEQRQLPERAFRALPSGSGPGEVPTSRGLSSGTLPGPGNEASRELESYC
Summary of the method: (§1)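 Cells were stimulated with peptide for 30 min at 37° C, then intracellular cAMP was measured by competitive HTRF (665/620 nm ratio) and converted to nM using a cAMP standard curve. Relative EC50 and Emax came from four-parameter logistic fits of percent maximal response against peptide concentration.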

hGCGR = target: T2, hGCGR (Homo sapiens, UniProt P47871); assay: Functional cAMP formation (HTRF) in HEK-293 clonal cells expressing hGCGR, 0.1% bovine casein, without or with 1.0% human serum albumin; conditions: hGCGR EC50, nM (SEM, n), 37° C., geometric mean
T2 construct: expressed in transfected cells
Summary of the method: as §1

hGLP-1R = hGLP-1R (Homo sapiens, UniProt P43220); assay: Functional cAMP formation (HTRF) in HEK-293 clonal cells expressing hGLP-1R, 0.1% bovine casein, without or with 1.0% human serum albumin; parameters: expressed in transfected cells; conditions: for Emax: percent of maximal response to GLP-1(7-36)NH2; for EC50: hGLP-1R EC50, nM (SEM, n), cAMP, 37° C., 0.1% bovine casein (no human serum albumin), geometric mean
Summary of the method: as §1

[1] = HEK293, read-out: hGIPR Emax, % ± SEM, cAMP, 37° C., 0.1% bovine casein, arithmetic mean
[2] = 0.1% bovine casein and 1.0% human serum albumin
[3] = cAMP, 0.1% bovine casein (no human serum albumin)
[4] = HEK293, read-out: hGLP-1R Emax, % ± SEM, 0.1% bovine casein and 1.0% human serum albumin, 37° C.

T2 sequence (P47871 26-477): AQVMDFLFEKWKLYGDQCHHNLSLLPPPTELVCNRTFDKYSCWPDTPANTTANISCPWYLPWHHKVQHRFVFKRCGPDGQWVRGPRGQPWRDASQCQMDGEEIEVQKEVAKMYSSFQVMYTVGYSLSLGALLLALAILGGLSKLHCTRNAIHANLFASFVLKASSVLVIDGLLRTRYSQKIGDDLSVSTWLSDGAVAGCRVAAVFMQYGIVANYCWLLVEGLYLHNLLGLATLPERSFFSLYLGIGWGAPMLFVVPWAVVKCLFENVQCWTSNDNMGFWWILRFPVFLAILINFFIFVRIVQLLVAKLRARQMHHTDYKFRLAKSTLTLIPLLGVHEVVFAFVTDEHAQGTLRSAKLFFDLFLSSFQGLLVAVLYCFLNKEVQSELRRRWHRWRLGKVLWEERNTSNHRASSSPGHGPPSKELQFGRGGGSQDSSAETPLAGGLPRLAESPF
Sequence of hGLP-1R (P43220 24-463): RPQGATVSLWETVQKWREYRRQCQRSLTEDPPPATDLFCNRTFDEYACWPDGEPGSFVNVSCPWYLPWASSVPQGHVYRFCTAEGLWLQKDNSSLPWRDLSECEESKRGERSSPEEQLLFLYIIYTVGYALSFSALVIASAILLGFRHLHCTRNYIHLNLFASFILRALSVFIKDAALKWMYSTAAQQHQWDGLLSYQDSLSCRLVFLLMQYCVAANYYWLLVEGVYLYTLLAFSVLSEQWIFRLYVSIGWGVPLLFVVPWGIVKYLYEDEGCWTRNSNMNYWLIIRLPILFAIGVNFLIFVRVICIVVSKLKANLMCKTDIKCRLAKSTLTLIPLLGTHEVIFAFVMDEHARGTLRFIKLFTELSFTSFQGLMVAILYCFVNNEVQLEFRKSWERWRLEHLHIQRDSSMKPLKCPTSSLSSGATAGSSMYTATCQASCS

SMILES | Emax (hGIPR; HEK293, read-out: hGIPR Emax, % ± SEM, 0.1% bovine casein and 1.0% human serum albumin, 37° C.) | Emax (hGIPR; [1]) | EC50 (hGIPR; [2]) | EC50 (hGIPR; [3]) | EC50 (hGCGR; [2]) | EC50 (hGCGR; [3]) | Emax (hGLP-1R; [4]) | EC50 (hGLP-1R) | Emax (hGLP-1R; HEK293, read-out: hGLP-1R Emax, % ± SEM, cAMP, 37° C., 0.1% bovine casein, arithmetic mean)
CC[C@H](C)[C@H](NC(=O)[C@H](CCCN)NC(=O)[C@H](CC(=O)O)NC(=O)[C@H](CC(C)C)NC(=O)[C@](C)(CC(C)C)NC(=O)[C@@H](NC(=O)[C@](C)(CO)NC(=O)[C@H](Cc1ccc(O)cc1)NC(=O)[C@H](CC(=O)O)NC(=O)[C@H](CO)NC(=O)[C@@H](NC(=O)[C@](C)(Cc1ccccc1F)NC(=O)[C@@H](NC(=O)CNC(=O)[C@H](CCC(=O)O)NC(=O)C(C)(C)NC(=O)[C@@H](N)Cc1ccc(O)cc1)[C@@H](C)O)[C@@H](C)O)[C@@H](C)CC)C(=O)N[C@@H](C)C(=O)N[C@@H](CCC(N)=O)C(=O)NC(C)(C)C(=O)N[C@@H](CCC(=O)O)C(=O)N[C@@H](Cc1ccccc1)C(=O)N[C@H](C(=O)N[C@@H](CCCCNC(=O)COCCOCCNC(=O)COCCOCCNC(=O)CC[C@H](NC(=O)CCCCCCCCCOc1ccc(C(=O)O)cc1)C(=O)O)C(=O)N[C@@](C)(Cc1ccc(O)cc1)C(=O)N[C@@H](CC(C)C)C(=O)N[C@H](C(=O)N[C@@H](CCCCNC(=O)COCCOCCNC(=O)COCCOCCNC(=O)CC[C@H](NC(=O)CCCCCCCCCOc1ccc(C(=O)O)cc1)C(=O)O)C(=O)NCC(=O)NCC(=O)N1CCC[C@H]1C(=O)N[C@@H](CO)C(=O)N[C@@H](CO)C(=O)NCC(=O)N[C@@H](C)C(=O)N1CCC[C@H]1C(=O)N1CCC[C@H]1C(=O)N1CCC[C@H]1C(=O)N[C@@H](CO)C(N)=O)[C@@H](C)CC)[C@@H](C)CC [Example 307] | 81.8% | 105% | 1.66 nM | 0.0292 nM | > 9950 nM | > 9950 nM | 109% | 0.376 nM | 
CC[C@H](C)[C@H](NC(=O)[C@H](CCCN)NC(=O)[C@H](CC(=O)O)NC(=O)[C@H](CC(C)C)NC(=O)[C@](C)(CC(C)C)NC(=O)[C@@H](NC(=O)C(C)(C)NC(=O)[C@@H](NC(=O)[C@H](CC(=O)O)NC(=O)[C@H](CO)NC(=O)[C@@H](NC(=O)[C@](C)(Cc1ccccc1F)NC(=O)[C@@H](NC(=O)CNC(=O)[C@H](CCC(=O)O)NC(=O)C(C)(C)NC(=O)[C@@H](N)Cc1ccc(O)cc1)[C@@H](C)O)[C@@H](C)O)C(C)C)[C@@H](C)CC)C(=O)N[C@@H](C)C(=O)N[C@@H](CCC(N)=O)C(=O)NC(C)(C)C(=O)N[C@@H](CCC(=O)O)C(=O)N[C@@H](Cc1ccccc1)C(=O)N[C@H](C(=O)N[C@@H](CCCCNC(=O)COCCOCCNC(=O)COCCOCCNC(=O)CC[C@H](NC(=O)CCCCCCCCCOc1ccc(C(=O)O)cc1)C(=O)O)C(=O)N[C@@](C)(Cc1ccc(O)cc1)C(=O)N[C@@H](CC(C)C)C(=O)N[C@H](C(=O)N[C@@H](CCCCNC(=O)COCCOCCNC(=O)COCCOCCNC(=O)CC[C@H](NC(=O)CCCCCCCCCOc1ccc(C(=O)O)cc1)C(=O)O)C(=O)NCC(=O)NCC(=O)N1CCC[C@H]1C(=O)N[C@@H](CO)C(=O)N[C@@H](CO)C(=O)NCC(=O)N[C@@H](C)C(=O)N1CCC[C@H]1C(=O)N1CCC[C@H]1C(=O)N1CCC[C@H]1C(=O)N[C@@H](CO)C(N)=O)[C@@H](C)CC)[C@@H](C)CC [Example 308] |  | 117% |  | 0.0551 nM | > 9950 nM | > 9950 nM | 92.2% | 0.689 nM | 98%
